In US20250282768A1 (Janssen Pharmaceutica NV, priority 2022, published 2025):

Test system: p-IKKa levels in L363 (NIK translocated multiple myeloma) cells
Assay: Assay 2: Effect of compounds on p-IKKa levels in L363 (NIK translocated multiple myeloma) cells
Assay type: cell-based
Settings: Homo sapiens, L-363, 6 h, read-out: Assay 2 IC50 (nM), p-IKKa (Ser 176/180) in BAFF stimulated L363 cells with MG132, 6 h; average if tested more than once
How it was run: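 L363 cells incubated overnight ± 250 ng/ml BAFF, then 6 h at 37 °C with compound (0.3% DMSO) ± 10 μM MG132. Lysates assayed for p-IKKa (Ser176/180) by AlphaLISA SureFire. IC50 from sigmoidal fit of % inhibition normalized to BAFF/MG132-stimulated and unstimulated controls.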

First: Cc1nccc(Nc2nccc(-c3cccc(-c4cc([C@]5(O)CCN(C)C5=O)on4)n3)n2)c1F [Example 334, (R)-3-(3-(6-(2-((3-Fluoro-2-methylpyridin-4-yl)amino)pyrimidin-4-yl)pyridin-2-yl)isoxazol-5-yl)-3-hydroxy-1-methylpyrrolidin-2-one]
Second: C[C@@H](Nc1nccc(-c2cccc(-c3cc([C@]4(O)CCN(C)C4=O)on3)n2)n1)c1ccccn1 [Example 363, (R)-3-Hydroxy-1-methyl-3-(3-(6-(2-(((R)-1-(pyridin-2-yl)ethyl)amino)pyrimidin-4-yl)pyridin-2-yl)isoxazol-5-yl)pyrrolidin-2-one]
The IC50 of the first is lower: under 50 nM for the first, 50 to 500 nM for the second. The first is the more potent here.

Compared with `CCn1cc(Nc2nccc(-c3cccc(-n4cc([C@]5(O)CCN(C)C5=O)nn4)n3)n2)cn1` [Example 335, (R)-3-(1-(6-(2-((1-Ethyl-1H-pyrazol-4-yl)amino)pyrimidin-4-yl)pyridin-2-yl)-1H-1,2,3-triazol-4-yl)-3-hydroxy-1-methylpyrrolidin-2-one], `CN1CC[C@@](O)(c2cc(-c3cccc(-c4ccnc(NCc5cnn(C)c5)n4)n3)no2)C1=O` [Example 368, (R)-3-Hydroxy-1-methyl-3-(3-(6-(2-(((1-methyl-1H-pyrazol-4-yl)methyl)amino)pyrimidin-4-yl)pyridin-2-yl)isoxazol-5-yl)pyrrolidin-2-one] is higher in IC50: under 50 nM for the first, 50 to 500 nM for the second.

First: CO[C@@H]1CCOC[C@H]1Nc1nccc(-c2cccc(-c3cc([C@]4(O)CCN(C)C4=O)on3)n2)n1 [Example 338, (R)-3-Hydroxy-3-(3-(6-(2-(((trans)-4-methoxytetrahydro-2H-pyran-3-yl)amino)pyrimidin-4-yl)pyridin-2-yl)isoxazol-5-yl)-1-methylpyrrolidin-2-one]
Second: CO[C@@H]1COC[C@H]1Nc1nccc(-c2cccc(-c3cc([C@]4(O)CCN(C)C4=O)on3)n2)n1 [Example 354, (R)-3-Hydroxy-3-(3-(6-(2-(((3R,4S)-4-methoxytetrahydrofuran-3-yl)amino)pyrimidin-4-yl)pyridin-2-yl)isoxazol-5-yl)-1-methylpyrrolidin-2-one]
The IC50 of the first is higher: over 500 nM for the first, 50 to 500 nM for the second. The second is the more potent here.

`CN1CC[C@@](O)(c2cc(-c3cccc(-c4ccnc(N[C@@H]5COC[C@@H]5F)n4)n3)no2)C1=O` [Example 339, (R)-3-(3-(6-(2-(((cis)-4-Fluorotetrahydrofuran-3-yl)amino)pyrimidin-4-yl)pyridin-2-yl)isoxazol-5-yl)-3-hydroxy-1-methylpyrrolidin-2-one] and `CN1CC[C@@](O)(c2cc(-c3cccc(-c4ccnc(N[C@@H]5COC[C@H]5F)n4)n3)no2)C1=O` [Example 342, (R)-3-(3-(6-(2-(((trans)-4-Fluorotetrahydrofuran-3-yl)amino)pyrimidin-4-yl)pyridin-2-yl)isoxazol-5-yl)-3-hydroxy-1-methylpyrrolidin-2-one] fall in the same range of IC50: 50 to 500 nM for the first, 50 to 500 nM for the second.

First: CN1CC[C@@](O)(c2cc(-c3cccc(-c4ccnc(NCC5CCOCC5)n4)n3)no2)C1=O [Example 340, (R)-3-Hydroxy-1-methyl-3-(3-(6-(2-(((tetrahydro-2H-pyran-4-yl)methyl)amino)pyrimidin-4-yl)pyridin-2-yl)isoxazol-5-yl)pyrrolidin-2-one]
Second: CN1CC[C@@](O)(c2cc(-c3cccc(-c4ccnc(NC[C@H]5CCO5)n4)n3)no2)C1=O [Example 358, (R)-3-Hydroxy-1-methyl-3-(3-(6-(2-((((R)-oxetan-2-yl)methyl)amino)pyrimidin-4-yl)pyridin-2-yl)isoxazol-5-yl)pyrrolidin-2-one]
The IC50 of the first is lower: 50 to 500 nM for the first, over 500 nM for the second.

`C[C@H](F)CCNc1nccc(-c2cccc(-c3cc([C@]4(O)CCN(C)C4=O)on3)n2)n1` [Example 344, (R)-3-(3-(6-(2-(((S)-3-Fluorobutyl)amino)pyrimidin-4-yl)pyridin-2-yl)isoxazol-5-yl)-3-hydroxy-1-methylpyrrolidin-2-one] and `CN1CC[C@@](O)(c2cc(-c3cccc(-c4ccnc(NCCC(F)F)n4)n3)no2)C1=O` [Example 359, (R)-3-(3-(6-(2-((3,3-Difluoropropyl)amino)pyrimidin-4-yl)pyridin-2-yl)isoxazol-5-yl)-3-hydroxy-1-methylpyrrolidin-2-one] fall in the same range of IC50: 50 to 500 nM for the first, 50 to 500 nM for the second.

First: CN1CC[C@@](O)(c2cc(-c3cccc(-c4ccnc(NC[C@@H]5C[C@@H]5F)n4)n3)no2)C1=O [Example 345, (R)-3-(3-(6-(2-((((cis)-2-Fluorocyclopropyl)methyl)amino)pyrimidin-4-yl)pyridin-2-yl)isoxazol-5-yl)-3-hydroxy-1-methylpyrrolidin-2-one]
Second: CN1CC[C@@](O)(c2cc(-c3cccc(-c4ccnc(NC[C@@H]5CCO5)n4)n3)no2)C1=O [Example 360, (R)-3-Hydroxy-1-methyl-3-(3-(6-(2-((((S)-oxetan-2-yl)methyl)amino)pyrimidin-4-yl)pyridin-2-yl)isoxazol-5-yl)pyrrolidin-2-one]
The IC50 of the first is lower: 50 to 500 nM for the first, over 500 nM for the second.

`C[C@@H](CF)Nc1nccc(-c2cccc(-c3cc([C@]4(O)CCN(C)C4=O)on3)n2)n1` [Example 348, (R)-3-(3-(6-(2-(((S)-1-Fluoropropan-2-yl)amino)pyrimidin-4-yl)pyridin-2-yl)isoxazol-5-yl)-3-hydroxy-1-methylpyrrolidin-2-one] and `C[C@H](CF)Nc1nccc(-c2cccc(-c3cc([C@]4(O)CCN(C)C4=O)on3)n2)n1` [Example 353, (R)-3-(3-(6-(2-(((R)-1-Fluoropropan-2-yl)amino)pyrimidin-4-yl)pyridin-2-yl)isoxazol-5-yl)-3-hydroxy-1-methylpyrrolidin-2-one] fall in the same range of IC50: 50 to 500 nM for the first, 50 to 500 nM for the second.

`CN1CC[C@@](O)(c2cc(-c3cccc(-c4ccnc(N[C@H]5C[C@H](F)C5)n4)n3)no2)C1=O` [Example 349, (R)-3-(3-(6-(2-(((1r,3R)-3-Fluorocyclobutyl)amino)pyrimidin-4-yl)pyridin-2-yl)isoxazol-5-yl)-3-hydroxy-1-methylpyrrolidin-2-one] and `CO[C@H]1C[C@@H](Nc2nccc(-c3cccc(-c4cc([C@]5(O)CCN(C)C5=O)on4)n3)n2)C1` [Example 351, (R)-3-Hydroxy-3-(3-(6-(2-(((1s,3S)-3-methoxycyclobutyl)amino)pyrimidin-4-yl)pyridin-2-yl)isoxazol-5-yl)-1-methylpyrrolidin-2-one] fall in the same range of IC50: 50 to 500 nM for the first, 50 to 500 nM for the second.

`CN1CC[C@@](O)(c2cc(-c3cccc(-c4ccnc(NC5CC56CCOC6)n4)n3)no2)C1=O` (stereo partly drawn) [Example 350, (3R)-3-(3-(6-(2-((5-Oxaspiro[2.4]heptan-1-yl)amino)pyrimidin-4-yl)pyridin-2-yl)isoxazol-5-yl)-3-hydroxy-1-methylpyrrolidin-2-one] and `CN1CC[C@@](O)(c2cc(-c3cccc(-c4ccnc(N[C@@H]5CCCC[C@@H]5O)n4)n3)no2)C1=O` [Example 357, (R)-3-Hydroxy-3-(3-(6-(2-(((1R,2S)-2-hydroxycyclohexyl)amino)pyrimidin-4-yl)pyridin-2-yl)isoxazol-5-yl)-1-methylpyrrolidin-2-one] cannot be ordered by IC50: over 500 nM for the first, over 500 nM for the second.

`CCO[C@@H]1COC[C@H]1Nc1nccc(-c2cccc(-c3cc([C@]4(O)CCN(C)C4=O)on3)n2)n1` [Example 352, (R)-3-(3-(6-(2-(((trans)-4-Ethoxytetrahydrofuran-3-yl)amino)pyrimidin-4-yl)pyridin-2-yl)isoxazol-5-yl)-3-hydroxy-1-methylpyrrolidin-2-one] and `COCC1CC(Nc2nccc(-c3cccc(-c4cc([C@]5(O)CCN(C)C5=O)on4)n3)n2)CO1` (stereo partly drawn) [Example 366, (3R)-3-Hydroxy-3-(3-(6-(2-((5-(methoxymethyl)tetrahydrofuran-3-yl)amino)pyrimidin-4-yl)pyridin-2-yl)isoxazol-5-yl)-1-methylpyrrolidin-2-one] fall in the same range of IC50: 50 to 500 nM for the first, 50 to 500 nM for the second.

`CO[C@H](C)CNc1nccc(-c2cccc(-c3cc([C@]4(O)CCN(C)C4=O)on3)n2)n1` [Example 356, (R)-3-Hydroxy-3-(3-(6-(2-(((R)-2-methoxypropyl)amino)pyrimidin-4-yl)pyridin-2-yl)isoxazol-5-yl)-1-methylpyrrolidin-2-one] and `CO[C@@H](C)CNc1nccc(-c2cccc(-c3cc([C@]4(O)CCN(C)C4=O)on3)n2)n1` [Example 362, (R)-3-Hydroxy-3-(3-(6-(2-(((S)-2-methoxypropyl)amino)pyrimidin-4-yl)pyridin-2-yl)isoxazol-5-yl)-1-methylpyrrolidin-2-one] fall in the same range of IC50: 50 to 500 nM for the first, 50 to 500 nM for the second.

First: CN1CC[C@@](O)(c2cc(-c3cccc(-c4ccnc(N[C@@H]5CC6CCC5O6)n4)n3)no2)C1=O (stereo partly drawn) [Example 361, (3R)-3-(3-(6-(2-(((cis)-7-Oxabicyclo[2.2.1]heptan-2-yl)amino)pyrimidin-4-yl)pyridin-2-yl)isoxazol-5-yl)-3-hydroxy-1-methylpyrrolidin-2-one]
Second: CN1CC[C@@](O)(c2cc(-c3cccc(-c4ccnc(NC5CCN(CC(F)F)C5)n4)n3)no2)C1=O (stereo partly drawn) [Example 365, (3R)-3-(3-(6-(2-((1-(2,2-Difluoroethyl)pyrrolidin-3-yl)amino)pyrimidin-4-yl)pyridin-2-yl)isoxazol-5-yl)-3-hydroxy-1-methylpyrrolidin-2-one]
The IC50 of the first is lower: 50 to 500 nM for the first, over 500 nM for the second. The first is the more potent here.

`CN1CC[C@@](O)(c2cc(-c3cccc(-c4ccnc(NCCF)n4)n3)no2)C1=O` [Example 364, (R)-3-(3-(6-(2-((2-Fluoroethyl)amino)pyrimidin-4-yl)pyridin-2-yl)isoxazol-5-yl)-3-hydroxy-1-methylpyrrolidin-2-one] and `CN1CC[C@@](O)(c2cc(-c3cccc(-c4ccnc(NCc5ccn(C)n5)n4)n3)no2)C1=O` [Example 367, (R)-3-Hydroxy-1-methyl-3-(3-(6-(2-(((1-methyl-1H-pyrazol-3-yl)methyl)amino)pyrimidin-4-yl)pyridin-2-yl)isoxazol-5-yl)pyrrolidin-2-one] fall in the same range of IC50: 50 to 500 nM for the first, 50 to 500 nM for the second.

`C[C@@H](Nc1nccc(-c2cccc(-c3cc([C@]4(O)CCN(C)C4=O)on3)n2)n1)c1ncc[nH]1` [Example 369, (R)-3-(3-(6-(2-(((R)-1-(1H-Imidazol-2-yl)ethyl)amino)pyrimidin-4-yl)pyridin-2-yl)isoxazol-5-yl)-3-hydroxy-1-methylpyrrolidin-2-one] gave an IC50 of over 500 nM.
